{"source": "ChEMBL document CHEMBL4477206", "about": "“Benzylpiperidine-Linked Diarylthiazoles as Potential Anti-Alzheimer's Agents: Synthesis and Biological Evaluation” (J Med Chem, 2016)", "key": {"[1]": {"test_system": "Mus musculus", "assay": "(§1) Neuroprotective activity in Swiss albino mouse assessed as elevation of scopolamine-induced decrease in catalase level in brain at 5 mg/kg, po administered 30 mins prior to scopolamine challenge administered for 9 days measured after 1 min of compound incubation by spectrophotometrical analysis relative to vehicle-treated control", "assay_type": "functional, organism-based"}, "[2]": {"assay": "Toxicity in Swiss albino mouse assessed as change in water and food consumption at 677 to 2000 mg/kg, po for 14 days", "assay_type": "organism-based", "details": "in vivo, 336 h"}, "[3]": {"assay": "in vitro", "details": "human, SH-SY5Y cells", "description": "Cytotoxicity against human SH-SY5Y cells assessed as cell viability at 40 uM after 24 hrs by MTT assay"}, "[4]": {"target": "T1, Acetylcholinesterase (Homo sapiens, UniProt P22303)", "T1 sequence (P22303 whole entry)": "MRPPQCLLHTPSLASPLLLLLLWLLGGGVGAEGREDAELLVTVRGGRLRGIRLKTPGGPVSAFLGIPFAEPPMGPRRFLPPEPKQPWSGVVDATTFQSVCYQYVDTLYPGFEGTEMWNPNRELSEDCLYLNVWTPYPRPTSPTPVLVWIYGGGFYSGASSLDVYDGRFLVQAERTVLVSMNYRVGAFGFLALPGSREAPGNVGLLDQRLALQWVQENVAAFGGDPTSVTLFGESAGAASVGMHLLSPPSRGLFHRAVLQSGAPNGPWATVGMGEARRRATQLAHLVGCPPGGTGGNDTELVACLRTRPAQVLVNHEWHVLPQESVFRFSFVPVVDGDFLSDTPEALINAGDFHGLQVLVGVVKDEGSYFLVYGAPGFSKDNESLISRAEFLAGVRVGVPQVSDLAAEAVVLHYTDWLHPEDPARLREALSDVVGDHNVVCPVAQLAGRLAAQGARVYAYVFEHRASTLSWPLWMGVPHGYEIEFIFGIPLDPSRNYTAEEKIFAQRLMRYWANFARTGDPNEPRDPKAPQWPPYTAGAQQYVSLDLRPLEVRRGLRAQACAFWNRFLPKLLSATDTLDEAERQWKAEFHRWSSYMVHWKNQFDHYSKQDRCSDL", "assay": "Mixed inhibition of human erythrocyte AChE at 0.05 to 0.4 uM using ATCI as substrate preincubated for 30 mins followed by substrate addition measured after 30 mins by Lineweaver-Burk plot analysis"}, "[5]": {"assay": "Toxicity in Swiss albino mouse assessed as kidney damage at 677 to 2000 mg/kg, po treated for 14 days measured on 15th day post treatment", "assay_type": "organism-based", "details": "in vivo, 336 h"}, "[6]": {"test_system": "Mus musculus", "assay": "as §1, with “inhibition” for “elevation”, “elevation” for “decrease”, “MDA” for “catalase”, “20 mins” for “1 min”, “TBARS assay” for “spectrophotometrical analysis”", "assay_type": "functional, organism-based"}, "[7]": {"target": "T1, Acetylcholinesterase", "details": "at 10 µM", "description": "Inhibition of human erythrocyte AChE-induced Abeta (1 to 42) aggregation at 10 uM incubated for 24 hrs by thioflavin-T fluorescence assay"}, "[8]": {"assay": "Permeability of the compound at 100 ug/ml incubated for 120 mins by PAMPA", "assay_type": "ADME", "details": "read-out: Peff"}, "[9]": {"assay": "Terminal half life in Wistar rat at 5 mg/kg, po administered as a single dose by HPLC analysis", "assay_type": "ADME, organism-based", "details": "in vivo, read-out: beta t1/2 (converted)"}, "[10]": {"assay": "AUC(0 to 8 hrs) in Wistar rat at 5 mg/kg, po administered as a single dose by HPLC analysis", "assay_type": "ADME, organism-based", "set-up": "time < 6 hr, dose 5 mg/kg, route oral", "details": "in vivo"}, "[11]": {"assay": "Toxicity in Swiss albino mouse assessed as mortality at 677 to 2000 mg/kg, po for 14 days", "assay_type": "organism-based", "details": "in vivo, 336 h"}, "[12]": {"target": "Cholinesterase (Equus caballus, UniProt P81908)", "sequence (P81908 whole entry)": "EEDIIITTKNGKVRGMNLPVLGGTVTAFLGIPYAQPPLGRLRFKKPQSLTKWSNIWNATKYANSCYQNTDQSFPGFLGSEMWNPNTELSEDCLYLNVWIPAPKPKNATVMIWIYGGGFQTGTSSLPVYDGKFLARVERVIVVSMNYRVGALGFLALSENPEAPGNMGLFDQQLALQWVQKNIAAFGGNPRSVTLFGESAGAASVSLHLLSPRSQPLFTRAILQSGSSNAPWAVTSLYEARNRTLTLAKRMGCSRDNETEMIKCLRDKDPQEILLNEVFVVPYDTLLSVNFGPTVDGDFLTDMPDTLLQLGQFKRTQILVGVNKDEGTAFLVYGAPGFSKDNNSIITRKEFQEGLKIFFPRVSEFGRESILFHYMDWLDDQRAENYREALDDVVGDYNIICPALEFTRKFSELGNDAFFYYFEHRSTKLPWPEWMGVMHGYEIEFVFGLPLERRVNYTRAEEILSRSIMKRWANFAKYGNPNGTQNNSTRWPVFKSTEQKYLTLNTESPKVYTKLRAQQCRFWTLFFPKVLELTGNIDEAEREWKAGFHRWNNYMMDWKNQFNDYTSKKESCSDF", "assay": "Inhibition of equine serum BuChE using BTCI as substrate preincubated for 30 mins followed by substrate addition measured after 30 mins by Ellman assay"}, "[13]": {"test_system": "Rattus norvegicus", "assay": "Neuroprotective activity in Wistar rat brain hippocampus assessed as increase in Abeta (1 to 42) insult-induced decrease in spontaneous alterations at 5 mg/kg, po administered for 15 days measured for last 5 days of treatment by Y Maze assay", "assay_type": "functional, organism-based"}, "[14]": {"assay": "Tmax in Wistar rat at 5 mg/kg, po administered as a single dose by HPLC analysis", "assay_type": "ADME, organism-based", "details": "in vivo"}, "[15]": {"assay": "Cmax in Wistar rat at 5 mg/kg, po administered as a single dose by HPLC analysis", "assay_type": "ADME, organism-based", "set-up": "dose 5 mg/kg, route oral", "details": "in vivo"}, "[16]": {"assay": "Toxicity in Swiss albino mouse assessed as heart damage at 677 to 2000 mg/kg, po treated for 14 days measured on 15th day post treatment", "assay_type": "organism-based", "details": "in vivo, 336 h"}, "[17]": {"assay": "Toxicity in Swiss albino mouse assessed as changes in fur sleekness at 677 to 2000 mg/kg, po for 14 days", "assay_type": "organism-based", "details": "in vivo, 336 h"}, "[18]": {"assay": "in vitro", "details": "human, SH-SY5Y cells", "remark": "listed apart in the source", "description": "Cytotoxicity against human SH-SY5Y cells assessed as cell viability at 80 uM after 24 hrs by MTT assay"}, "[19]": {"assay": "Toxicity in Swiss albino mouse assessed as change in body weight at 677 to 2000 mg/kg, po for 14 days", "assay_type": "organism-based", "details": "in vivo, 336 h"}, "[20]": {"assay": "Toxicity in Swiss albino mouse assessed as liver damage at 677 to 2000 mg/kg, po treated for 14 days measured on 15th day post treatment", "assay_type": "organism-based", "details": "in vivo, 336 h"}}, "note": "Activity calls are given as the source filed them. The calls are words filed in the database; no cut-off is given here.", "data": [{"smiles": "Cc1ccc(-c2nc(NCC3CCN(Cc4cc(F)cc(F)c4)CC3)sc2-c2ccc(C)cc2)cc1", "values": [{"measurement": "Activity", "setting": "[1]", "result": "Active"}, {"measurement": "Activity", "setting": "[2]", "result": "Non-Toxic"}, {"measurement": "viability at 24 h, 40 µM", "setting": "[3]", "result": 95.2, "unit": "%"}, {"measurement": "inhibition", "setting": "[4]", "result": "Active"}, {"measurement": "Activity", "setting": "[5]", "result": "Non-Toxic"}, {"measurement": "Activity", "setting": "[6]", "result": "Active"}, {"measurement": "inhibition", "setting": "[7]", "result": 27.6, "unit": "%"}, {"measurement": "Papp at 2 h, 100 ug/ml", "setting": "[8]", "result": 14.5, "unit": "×10⁻⁶ cm/s"}, {"measurement": "half-life", "setting": "[9]", "result": 19.4, "unit": "h"}, {"measurement": "AUC(0-t) at 6 h", "setting": "[10]", "result": 587, "unit": "ng·h/mL"}, {"measurement": "Activity", "setting": "[11]", "result": "Non-Toxic"}, {"measurement": "IC50", "setting": "[12]", "result": 1840, "unit": "nM"}, {"measurement": "Activity", "setting": "[13]", "result": "Active"}, {"measurement": "Tmax", "setting": "[14]", "result": 3.66, "unit": "h"}, {"measurement": "Cmax", "setting": "[15]", "result": 21.2, "unit": "ng/mL"}, {"measurement": "Activity", "setting": "[16]", "result": "Non-Toxic"}, {"measurement": "Activity", "setting": "[17]", "result": "Non-Toxic"}, {"measurement": "viability at 24 h, 80 µM", "setting": "[18]", "result": 91.3, "unit": "%"}, {"measurement": "Activity", "setting": "[19]", "result": "Non-Toxic"}, {"measurement": "Activity", "setting": "[20]", "result": "Non-Toxic"}]}]}
